# What was measured:
# Periplaneta americana = test: Toxic effect in Periplaneta americana (American cockroach) assessed as paralyzed insects after 24 hr of abdomen compound injection by insecticidal assay; format: functional
# [1] = Hydrophobicity, log P of the compound in octanol-water by shaking-flask method; format: physicochemical
# [2] = biological target: T1, Nicotinic acetylcholine receptor alpha8 subunit (Periplaneta americana) (UniProt H6TY12); test: Neuroblocking activity in Periplaneta americana (American cockroach) nicotinic acetylcholine receptor in abdominal fifth and sixth ganglia nerve assessed as neuroblocking concentration by neurophysiological test
# T1 sequence (whole entry): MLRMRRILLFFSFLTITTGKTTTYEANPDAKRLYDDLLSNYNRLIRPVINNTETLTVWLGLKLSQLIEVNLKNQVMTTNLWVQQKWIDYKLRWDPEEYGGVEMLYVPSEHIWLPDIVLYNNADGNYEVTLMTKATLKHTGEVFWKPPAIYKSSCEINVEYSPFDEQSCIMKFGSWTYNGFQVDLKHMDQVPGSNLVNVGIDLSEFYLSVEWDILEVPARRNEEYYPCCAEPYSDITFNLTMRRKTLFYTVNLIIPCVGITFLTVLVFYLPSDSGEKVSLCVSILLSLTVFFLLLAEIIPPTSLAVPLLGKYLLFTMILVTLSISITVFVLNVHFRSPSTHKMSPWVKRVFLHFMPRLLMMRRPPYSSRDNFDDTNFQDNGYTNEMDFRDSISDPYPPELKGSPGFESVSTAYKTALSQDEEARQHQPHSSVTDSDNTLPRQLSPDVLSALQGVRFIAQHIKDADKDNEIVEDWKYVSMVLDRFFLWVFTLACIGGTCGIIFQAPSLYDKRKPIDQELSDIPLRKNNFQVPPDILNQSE
SMILES,log(1/MLD) (Periplaneta americana),logP [1],log(1/BC) [2]
O=[N+]([O-])/N=c1\sccn1Cc1ccc(Cl)nc1,8.85,0.53,5.68
O=[N+]([O-])/N=c1\ccccn1Cc1cnc(Cl)s1,8.92,0.67,5.75
O=[N+]([O-])/N=c1\[nH]ccn1Cc1cnc(Cl)s1,8.12,0.27,4.61
O=[N+]([O-])Nc1nccn1Cc1ccc(Cl)nc1 [DEHYDROIMIDACLOPRID],7.72,0.33,4.31
O=[N+]([O-])/C=C1\SCCN1Cc1ccc(Cl)nc1,9.76,0.47,6.19
O=[N+]([O-])/N=c1\ccccn1Cc1ccc(Cl)nc1,8.88,0.51,5.09
O=[N+]([O-])/N=C1\SCCN1Cc1cnc(Cl)s1,7.42,0.8,6
O=[N+]([O-])/N=c1\sccn1Cc1cnc(Cl)s1,7.85,0.96,5.79
CN1CCN(Cc2ccc(Cl)nc2)/C1=N/[N+](=O)[O-],8.53,-0.07,3.81
O=[N+]([O-])/C=C1\NCCN1Cc1cnc(Cl)s1,9.34,0.03,5.73
O=[N+]([O-])/N=C1\NCCN1Cc1ccc(Cl)nc1 [IMIDACLOPRID],8.96,,5.64
O=[N+]([O-])/C=C1\CCCN1Cc1ccc(Cl)nc1,9.84,0.45,6.43
O=[N+]([O-])/N=C1\NCCCN1Cc1ccc(Cl)nc1,8.22,0.57,5.35
CN1CCN(Cc2ccc(Cl)nc2)/C1=C/[N+](=O)[O-],7.77,-0.84,3.84
O=[N+]([O-])/N=C1\NCCN1Cc1cnc(Cl)s1 [IMIDACLOTHIZ],8.42,0.61,5.97
O=[N+]([O-])/C=C1\CCCN1Cc1cnc(Cl)s1,8.96,,6.31
O=[N+]([O-])NC1=NCCN1Cc1ccc(Cl)nc1 [IMIDACLOPRID],,0.53,
O=[N+]([O-])/C=C1\NCCN1Cc1ccc(Cl)nc1,9.19,-0.18,5.02

# — ChEMBL document CHEMBL3045233, “Insecticidal and neuroblocking potencies of variants of the imidazolidine moiety of imidacloprid-related neonicotinoids and the relationship to partition coefficient and charge density on the pharmacophore” (J Agric Food Chem, 2007)
